Laboratory results: ChEMBL document CHEMBL1649331, “Determination of CEM-101 activity tested against clinical isolates of Neisseria meningitidis from a worldwide collection” (2010)
In brackets after ≈: the same amount, converted by molar mass.

Legend:
Type in all cases: functional
Neisseria meningitidis [1] = assay: Antimicrobial activity against Neisseria meningitidis by broth microdilution method
Neisseria meningitidis [2] = assay: Antimicrobial activity against Neisseria meningitidis assessed as susceptible isolate by broth microdilution method
Neisseria meningitidis [3] = assay: Antimicrobial activity against Neisseria meningitidis assessed as resistant isolate by broth microdilution method

Work on CC[C@H]1OC(=O)[C@H](C)[C@@H](O[C@H]2C[C@@](C)(OC)[C@@H](O)[C@H](C)O2)[C@H](C)[C@@H](O[C@@H]2O[C@H](C)C[C@H](N(C)C)[C@H]2O)[C@](C)(O)C[C@@H](C)CN(C)[C@H](C)[C@@H](O)[C@]1(C)O [AZITHROMYCIN] yielded an MIC (Neisseria meningitidis [1]) of no more than 0.015 µg/mL, an MIC50 (Neisseria meningitidis [1]) of 0.06 µg/mL (≈ 0.0801 µM) and an MIC90 (Neisseria meningitidis [1]) of 0.12 µg/mL (≈ 0.16 µM). It also gave an Activity (Neisseria meningitidis [2]) of 100%.
CO/N=C(\C(=O)N[C@@H]1C(=O)N2C(C(=O)O)=C(CSc3nc(=O)c(O)nn3C)CS[C@H]12)c1csc(N)n1 [CEFTRIAXONE] showed an MIC50 (Neisseria meningitidis [1]) of no more than 0.015 µg/mL, an MIC90 (Neisseria meningitidis [1]) of no more than 0.015 µg/mL and an Activity (Neisseria meningitidis [2]) of 100%.
O=C(O)c1cn(C2CC2)c2cc(N3CCNCC3)c(F)cc2c1=O [CIPROFLOXACIN] showed an Activity (Neisseria meningitidis [2]) of 97.1% and an Activity (Neisseria meningitidis [3]) of 1.9%.
CC[C@H]1OC(=O)[C@H](C)[C@@H](O[C@H]2C[C@@](C)(OC)[C@@H](O)[C@H](C)O2)[C@H](C)[C@@H](O[C@@H]2O[C@H](C)C[C@H](N(C)C)[C@H]2O)[C@](C)(OC)C[C@@H](C)C(=O)[C@H](C)[C@@H](O)[C@]1(C)O [CLARITHROMYCIN] gave an MIC (Neisseria meningitidis [1]) of no more than 0.015 µg/mL, an MIC50 (Neisseria meningitidis [1]) of 0.03 µg/mL (≈ 0.0401 µM) and an MIC90 (Neisseria meningitidis [1]) of 0.12 µg/mL (≈ 0.16 µM).
Molecule CC[C@H]1OC(=O)[C@H](C)[C@@H](O[C@H]2C[C@@](C)(OC)[C@@H](O)[C@H](C)O2)[C@H](C)[C@@H](O[C@@H]2O[C@H](C)C[C@H](N(C)C)[C@H]2O)[C@](C)(O)C[C@@H](C)C(=O)[C@H](C)[C@@H](O)[C@]1(C)O [ERYTHROMYCIN] has an MIC (Neisseria meningitidis [1]) of no more than 0.03 µg/mL, an MIC50 (Neisseria meningitidis [1]) of 0.12 µg/mL (≈ 0.164 µM) and an MIC90 (Neisseria meningitidis [1]) of 0.25 µg/mL (≈ 0.341 µM).
In the case of C[C@H]1COc2c(N3CCN(C)CC3)c(F)cc3c(=O)c(C(=O)O)cn1c23.C[C@H]1COc2c(N3CCN(C)CC3)c(F)cc3c(=O)c(C(=O)O)cn1c23.O [LEVOFLOXACIN], the MIC (Neisseria meningitidis [1]) is reported as no more than 0.008 µg/mL, the MIC50 (Neisseria meningitidis [1]) is reported as no more than 0.008 µg/mL and the MIC90 (Neisseria meningitidis [1]) is reported as no more than 0.008 µg/mL. For the same molecule, the Activity (Neisseria meningitidis [2]) was 97.1% and the Activity (Neisseria meningitidis [3]) was 1.9%.
For CN(C)c1ccc(O)c2c1C[C@H]1C[C@H]3[C@H](N(C)C)C(O)=C(C(N)=O)C(=O)[C@@]3(O)C(O)=C1C2=O [MINOCYCLINE], the MIC (Neisseria meningitidis [1]) was no more than 0.015 µg/mL, the MIC50 (Neisseria meningitidis [1]) was 0.12 µg/mL (≈ 0.262 µM) and the MIC90 (Neisseria meningitidis [1]) was 0.25 µg/mL (≈ 0.546 µM). It also gave an Activity (Neisseria meningitidis [2]) of 100% and an Activity (Neisseria meningitidis [3]) of 0%.
Molecule CC1(C)S[C@@H]2[C@H](NC(=O)Cc3ccccc3)C(=O)N2[C@H]1C(=O)O [PENICILLIN G] has an MIC (Neisseria meningitidis [1]) of no more than 0.015 µg/mL, an MIC50 (Neisseria meningitidis [1]) of 0.03 µg/mL (≈ 0.0897 µM) and an MIC90 (Neisseria meningitidis [1]) of 0.12 µg/mL (≈ 0.359 µM). For the same molecule, the Activity (Neisseria meningitidis [2]) was 84.5% and the Activity (Neisseria meningitidis [3]) was 0%.
In the case of CO[C@H]1/C=C/O[C@@]2(C)Oc3c(C)c(O)c4c(O)c(c(/C=N/N5CCN(C)CC5)c(O)c4c3C2=O)NC(=O)/C(C)=C\C=C\[C@H](C)[C@H](O)[C@@H](C)[C@@H](O)[C@@H](C)[C@H](OC(C)=O)[C@@H]1C [RIFAMPIN], the MIC50 (Neisseria meningitidis [1]) is reported as 0.015 µg/mL (≈ 0.0182 µM), the MIC90 (Neisseria meningitidis [1]) is reported as 0.03 µg/mL (≈ 0.0365 µM) and the Activity (Neisseria meningitidis [2]) is reported as 100%. It also gave an Activity (Neisseria meningitidis [3]) of 0%.
CC[C@H]1OC(=O)[C@@](C)(F)C(=O)[C@H](C)[C@@H](O[C@@H]2O[C@H](C)C[C@H](N(C)C)[C@H]2O)[C@](C)(OC)C[C@@H](C)C(=O)[C@H](C)[C@H]2N(CCCCn3cc(-c4cccc(N)c4)nn3)C(=O)O[C@]12C [SOLITHROMYCIN] gave an MIC (Neisseria meningitidis [1]) of no more than 0.015 µg/mL, an MIC50 (Neisseria meningitidis [1]) of no more than 0.015 µg/mL and an MIC90 (Neisseria meningitidis [1]) of no more than 0.015 µg/mL.
Work on CC[C@H]1OC(=O)[C@H](C)C(=O)[C@H](C)[C@@H](O[C@@H]2O[C@H](C)C[C@H](N(C)C)[C@H]2O)[C@](C)(OC)C[C@@H](C)C(=O)[C@H](C)[C@H]2N(CCCCn3cnc(-c4cccnc4)c3)C(=O)O[C@]12C [TELITHROMYCIN] yielded an MIC (Neisseria meningitidis [1]) of no more than 0.015 µg/mL, an MIC50 (Neisseria meningitidis [1]) of no more than 0.015 µg/mL and an MIC90 (Neisseria meningitidis [1]) of 0.03 µg/mL (≈ 0.0369 µM).
